Assay in all cases: relative viability (nuclei count vs DMSO), 5 days (fraction); higher = more cells survive
Compound in experiment [1]: CC1=NC=CC(=C1)C2=CC=C(C=C2)CC(=O)NC3=CC=C(C=C3)C4=CN=CC=C4 [Wnt-C59] + COc1cccc2cc(-c3nc([C@H]4CC[C@H](C(=O)O)CC4)n4ncnc(N)c34)[nH]c12 [OSI-027] (partner 0.5 µM)
A digest of the protocol: (§1)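 The day after seeding in 1536-well plates, lung cancer cell lines were treated by pin tool with a single drug, or with a fixed anchor-drug dose together with five library-drug doses (not always all listed) in √10 steps. After 5 days, a combined fix-and-stain solution (final 0.05% Triton X-100, 1% formaldehyde, 1 ug/ml Hoechst) was added. Nuclei counted on 4× images gave relative viability as treated counts over vehicle counts, reported as the median of duplicate plates.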

Compound in experiment [2]: CC1=NC=CC(=C1)C2=CC=C(C=C2)CC(=O)NC3=CC=C(C=C3)C4=CN=CC=C4 [Wnt-C59] + O=C(c1cc(Cc2n[nH]c(=O)c3ccccc23)ccc1F)N1CCN(C(=O)C2CC2)CC1 [Olaparib] (partner 8 µM)
A digest of the protocol: as §1

Compound in experiment [3]: CS(=O)(=O)CCNCc1ccc(-c2ccc3ncnc(Nc4ccc(OCc5cccc(F)c5)c(Cl)c4)c3c2)o1 [Lapatinib] + Cc1nc(Nc2ncc(C(=O)Nc3c(C)cccc3Cl)s2)cc(N2CCN(CCO)CC2)n1 [Dasatinib] (partner 0.075 µM)
A digest of the protocol:
as §1

Compound in experiment [4]: CS(=O)(=O)CCNCc1ccc(-c2ccc3ncnc(Nc4ccc(OCc5cccc(F)c5)c(Cl)c4)c3c2)o1 [Lapatinib] + O=C(c1cc(Cc2n[nH]c(=O)c3ccccc23)ccc1F)N1CCN(C(=O)C2CC2)CC1 [Olaparib] (partner 8 µM)
A digest of the protocol:
as §1

As to NCI-H1734, the relative viability was 0.622 in experiment [1] (first compound 0.001 µM); 0.518 in experiment [1] (first compound 0.01 µM); 0.596 in experiment [1] (first compound 0.03162 µM); 0.3 in experiment [1] (first compound 0.1 µM); 0.615 in experiment [2] (first compound 0.001 µM); 0.612 in experiment [2] (first compound 0.01 µM). Besides, the relative viability stood at 0.672 in experiment [2] (first compound 0.03162 µM); 0.282 in experiment [2] (first compound 0.1 µM); 0.456 in experiment [3] (first compound 0.02 µM); 0.384 in experiment [3] (first compound 0.06325 µM); 0.544 in experiment [3] (first compound 0.2 µM); 0.511 in experiment [3] (first compound 0.6325 µM). Moreover, the relative viability in experiment [3] (first compound 2 µM) worked out at 0.488; in experiment [4] (first compound 0.06325 µM), 0.54; in experiment [4] (first compound 0.2 µM), 0.62; in experiment [4] (first compound 0.6325 µM), 0.593; in experiment [4] (first compound 2 µM), 0.586.
Take NCI-H1755: the relative viability is 0.8 in experiment [1] (first compound 0.001 µM); 0.72 in experiment [1] (first compound 0.01 µM); 0.644 in experiment [1] (first compound 0.03162 µM); 0.663 in experiment [1] (first compound 0.1 µM); 0.944 in experiment [2] (first compound 0.001 µM); 0.851 in experiment [2] (first compound 0.01 µM). Besides, the relative viability is 0.888 in experiment [2] (first compound 0.03162 µM); 0.798 in experiment [2] (first compound 0.1 µM); 0.375 in experiment [3] (first compound 0.02 µM); 0.278 in experiment [3] (first compound 0.06325 µM); 0.422 in experiment [3] (first compound 0.2 µM); 0.381 in experiment [3] (first compound 0.6325 µM). Further, the relative viability in experiment [3] (first compound 2 µM) turned out to be 0.394; in experiment [4] (first compound 0.02 µM), 0.855; in experiment [4] (first compound 0.06325 µM), 0.837; in experiment [4] (first compound 0.2 µM), 0.885; in experiment [4] (first compound 0.6325 µM), 0.882; in experiment [4] (first compound 2 µM), 0.815.
For the cell line NCI-H1792, the relative viability turned out to be 0.722 in experiment [1] (first compound 0.001 µM); 0.686 in experiment [1] (first compound 0.01 µM); 0.926 in experiment [1] (first compound 0.03162 µM); 0.703 in experiment [1] (first compound 0.1 µM); 0.487 in experiment [2] (first compound 0.001 µM); 0.48 in experiment [2] (first compound 0.01 µM). Moreover, the relative viability in experiment [2] (first compound 0.03162 µM) came out at 0.525; in experiment [2] (first compound 0.1 µM), 0.385; in experiment [3] (first compound 0.02 µM) it was 0.763; in experiment [3] (first compound 0.2 µM), 0.754; in experiment [3] (first compound 0.6325 µM), 0.68; in experiment [3] (first compound 2 µM) it was 0.425. Moreover, the values for the relative viability in experiment [4] (first compound 0.2 µM), in experiment [4] (first compound 0.6325 µM) and in experiment [4] (first compound 2 µM) were 0.377, 0.342 and 0.351, respectively.
For the cell line NCI-H1793, the relative viability was found to be 0.189 in experiment [1] (first compound 0.001 µM); 0.287 in experiment [1] (first compound 0.03162 µM); 0.266 in experiment [1] (first compound 0.1 µM); 0.779 in experiment [2] (first compound 0.001 µM); 0.734 in experiment [2] (first compound 0.01 µM); 1.01 in experiment [2] (first compound 0.03162 µM). Further, the relative viability in experiment [2] (first compound 0.1 µM) was found to be 0.841; in experiment [3] (first compound 0.06325 µM), 0.339; in experiment [3] (first compound 0.2 µM) it was 0.398; in experiment [3] (first compound 0.6325 µM), 0.319; in experiment [3] (first compound 2 µM) it was 0.316; in experiment [4] (first compound 0.06325 µM), 0.363. For the same cell line, the relative viability in experiment [4] (first compound 0.2 µM) is 0.598; in experiment [4] (first compound 0.6325 µM), 0.537; in experiment [4] (first compound 2 µM) it was 0.449.
In the case of NCI-H1915, the relative viability came to 0.667 in experiment [1] (first compound 0.001 µM); 0.578 in experiment [1] (first compound 0.01 µM); 0.529 in experiment [1] (first compound 0.03162 µM); 0.692 in experiment [1] (first compound 0.1 µM); 0.256 in experiment [2] (first compound 0.001 µM); 0.266 in experiment [2] (first compound 0.01 µM). For the same cell line, the relative viability in experiment [2] (first compound 0.03162 µM) is 0.248; in experiment [2] (first compound 0.1 µM), 0.239; in experiment [3] (first compound 0.06325 µM), 0.285; in experiment [3] (first compound 0.2 µM), 0.337; in experiment [3] (first compound 0.6325 µM) it was 0.293; in experiment [3] (first compound 2 µM) it was 0.297. Moreover, the relative viability in experiment [4] (first compound 0.06325 µM) was determined as 0.277; in experiment [4] (first compound 0.2 µM) it was 0.275; in experiment [4] (first compound 0.6325 µM), 0.243; in experiment [4] (first compound 2 µM), 0.237.
Consider NCI-H1944, for which the relative viability in experiment [1] (first compound 0.001 µM) was 0.407; in experiment [1] (first compound 0.01 µM), 0.358; in experiment [1] (first compound 0.03162 µM) it was 0.415; in experiment [1] (first compound 0.1 µM), 0.462; in experiment [2] (first compound 0.001 µM), 0.463; in experiment [2] (first compound 0.01 µM) it was 0.396. Also, the relative viability in experiment [2] (first compound 0.03162 µM) was 0.343; in experiment [2] (first compound 0.1 µM), 0.388; in experiment [3] (first compound 0.02 µM) it was 0.185; in experiment [3] (first compound 0.06325 µM), 0.153; in experiment [3] (first compound 0.2 µM), 0.204; in experiment [3] (first compound 0.6325 µM), 0.243. Besides, the relative viability in experiment [3] (first compound 2 µM) came out at 0.207; in experiment [4] (first compound 0.02 µM) it was 0.397; in experiment [4] (first compound 0.06325 µM), 0.389; in experiment [4] (first compound 0.2 µM) it was 0.381; in experiment [4] (first compound 0.6325 µM), 0.354; in experiment [4] (first compound 2 µM), 0.327.
As for NCI-H1975, the relative viability turned out to be 0.685 in experiment [1] (first compound 0.001 µM); 0.555 in experiment [1] (first compound 0.01 µM); 0.855 in experiment [1] (first compound 0.03162 µM); 0.713 in experiment [1] (first compound 0.1 µM); 0.797 in experiment [2] (first compound 0.001 µM); 0.807 in experiment [2] (first compound 0.01 µM). In addition, the relative viability in experiment [2] (first compound 0.03162 µM) came out at 0.786; in experiment [2] (first compound 0.1 µM), 0.869; in experiment [3] (first compound 0.02 µM), 0.417; in experiment [3] (first compound 0.06325 µM) it was 0.316; in experiment [3] (first compound 0.2 µM), 0.378; in experiment [3] (first compound 0.6325 µM) it was 0.41. Also, the relative viability is 0.219 in experiment [3] (first compound 2 µM); 0.85 in experiment [4] (first compound 0.02 µM); 0.771 in experiment [4] (first compound 0.06325 µM); 0.772 in experiment [4] (first compound 0.2 µM); 0.76 in experiment [4] (first compound 0.6325 µM); 0.503 in experiment [4] (first compound 2 µM).
For the cell line NCI-H1993, the relative viability in experiment [1] (first compound 0.001 µM) came to 0.582; in experiment [1] (first compound 0.03162 µM), 0.57; in experiment [1] (first compound 0.1 µM), 0.544; in experiment [2] (first compound 0.001 µM), 1.17; in experiment [2] (first compound 0.01 µM) it was 1.06; in experiment [2] (first compound 0.03162 µM), 1.11. The relative viability in experiment [2] (first compound 0.1 µM) worked out at 0.413; in experiment [3] (first compound 0.02 µM), 0.564; in experiment [3] (first compound 0.2 µM) it was 0.55; in experiment [3] (first compound 0.6325 µM), 0.516; in experiment [3] (first compound 2 µM), 0.563; in experiment [4] (first compound 0.02 µM) it was 0.961. The relative viability in experiment [4] (first compound 0.2 µM) came out at 0.901; in experiment [4] (first compound 0.6325 µM) it was 0.965; in experiment [4] (first compound 2 µM) it was 0.661.
Turning to NCI-H2009, the relative viability in experiment [1] (first compound 0.001 µM) was determined as 0.699; in experiment [1] (first compound 0.01 µM), 0.701; in experiment [1] (first compound 0.03162 µM), 0.695; in experiment [1] (first compound 0.1 µM), 0.64; in experiment [2] (first compound 0.001 µM) it was 0.644; in experiment [2] (first compound 0.01 µM), 0.765. Moreover, the relative viability amounted to 0.734 in experiment [2] (first compound 0.03162 µM); 0.727 in experiment [2] (first compound 0.1 µM); 0.282 in experiment [3] (first compound 0.02 µM); 0.244 in experiment [3] (first compound 0.06325 µM); 0.358 in experiment [3] (first compound 0.2 µM); 0.33 in experiment [3] (first compound 0.6325 µM). Moreover, the relative viability in experiment [3] (first compound 2 µM) was 0.286; in experiment [4] (first compound 0.02 µM), 0.666; in experiment [4] (first compound 0.06325 µM) it was 0.712; in experiment [4] (first compound 0.2 µM), 0.694; in experiment [4] (first compound 0.6325 µM), 0.696; in experiment [4] (first compound 2 µM), 0.567.

(Values after the supplement of paper PMC10307832.)
